The results in this text go back to patent US4337266A, “Cytostatic terminally bifunctional sugar alcohols process for preparing them and pharmaceutical compositions containing them” (priority 1979, dated 1982).

For data set [1], the system named is Walker intramuscular carcinosarcoma. Nature of the data set: Activity against Walker intramuscular carcinosarcoma. Type of data set: in vivo. The text has this:
Activity against Walker intramuscular carcinosarcoma

Data set [2] is described as follows: Toxicity tests, LD50 on mice after intraperitoneal administration. The conditions noted are these: mouse, in vivo, ip. The text has this: LD50 values on mice after intraperitoneal administ-
The next data set concerns S-180 subcutan sarcoma. The data set can be described thus: Activity against S-180 subcutan sarcoma. Type of data set: in vivo. As to conditions: 8 × 50 mg/kg/ip. The text has this: |Activity against S-180 subcutan sarcoma

In general, LD50 refers to the dose at which mortality reaches 50%. A low value points to a more toxic substance. In the case of `CO[C@H]([C@H](OC)[C@@H](O)CBr)[C@H](O)CBr` [DMDBD, 1,6-dibromo-1,6-dideoxy-3,4-dimethyl dulcitol], the figures for the Antitumour activity (in data set [1] (1 × 50 mg/kg/ip); in data set [1] (1 × 100 mg/kg/ip); in the data set on S-180 subcutan sarcoma) were 80%, 99% and 90%, respectively. The LD50 in data set [2] was found to be 700 mg/kg.

As for `CO[C@H]([C@@H]1CO1)[C@H]1CO1` [MMDAX, 1,2-4,5-dianhydro-3-methyl-xylitol], the Antitumour activity in data set [1] (1 × 100 mg/kg/ip) is listed as 90%; in the data set with S-180 subcutan sarcoma, 75%. This compound also returned an LD50 in data set [2] of 500 mg/kg.

`CO[C@H]([C@H](OC)[C@@H]1CO1)[C@H]1CO1` [DMDAD, 1,2-5,6-dianhydro-3,4-dimethyl dulcitol]: the values for the Antitumour activity (in data set [1] (1 × 50 mg/kg/ip); in data set [1] (1 × 100 mg/kg/ip); in the data set on S-180 subcutan sarcoma) were 55%, 80% and 80%, respectively. Besides, in data set [2], the LD50 came to 680 mg/kg.
